Target: T1, Human TrxR1 (Homo sapiens, UniProt Q16881)
T1 construct: made in house
T1 sequence (Q16881 1-499 isoform Q16881-5): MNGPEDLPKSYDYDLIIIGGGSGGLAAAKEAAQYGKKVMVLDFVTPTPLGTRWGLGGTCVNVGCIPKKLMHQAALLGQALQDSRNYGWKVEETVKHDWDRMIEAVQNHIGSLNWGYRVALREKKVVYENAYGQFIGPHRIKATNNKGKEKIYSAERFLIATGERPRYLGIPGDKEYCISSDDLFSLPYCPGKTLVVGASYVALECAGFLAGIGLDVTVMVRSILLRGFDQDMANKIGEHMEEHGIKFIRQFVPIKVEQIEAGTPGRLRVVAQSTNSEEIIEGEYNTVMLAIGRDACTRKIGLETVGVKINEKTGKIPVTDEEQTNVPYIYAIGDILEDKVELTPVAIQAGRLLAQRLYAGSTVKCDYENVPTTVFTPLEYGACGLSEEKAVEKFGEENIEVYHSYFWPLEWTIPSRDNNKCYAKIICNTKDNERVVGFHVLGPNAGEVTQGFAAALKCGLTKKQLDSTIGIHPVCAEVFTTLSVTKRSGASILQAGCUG
Experiment: Human TrxR1 enzyme inhibition (DTNB reduction)
Format: biochemical
Details: 15 min preincubation (enzyme + 100 µM NADPH + compound); read-out: Human TrxR1 IC50
Experimental: Recombinant TGR, human TrxR1, B. malayi (Bm)TrxR and human GR proteins were expressed and purified as described[20],[69],[79]. The codon optimized sequence for P. falciparum (PfTrxR, https://www.ncbi.nlm.nih.gov/protein/CAA60574.1/) with an N-terminal 6-His tag was synthesized and inserted into pET15b (GenScript) and expressed in BL21 (DE3) cells and purified as described for human GR[20]. TGR and TrxR enzyme inhibition assays were performed in triplicate at 25 °C as described[20] in 0.1 M potassium phosphate (pH 7.4), 10 mM EDTA, 100 µM NADPH and 0.01% Tween-20. […] The reaction was started with addition of an equal volume of DTNB (6 mM) and NADPH (100 µM) and the increase in A412 during the first 3 min was recorded. […] The reaction was preincubated for 15 min. Activity was initiated with the addition of 1 mM GSSG and 100 μM NADPH and initial rates of NADPH oxidation were monitored at 340 nm. The reactions were done in triplicate. The IC50 was calculated in GraphPad Prism.

Structure (SMILES) | IC50 [µM]
Cc1oc(-c2ccccc2)nc1CN[C@@H]1C[C@@H]2C[C@H]([C@H]1C)C2(C)C [Compound 3] | > 66.7
Cc1oc(C2CCCCC2)nc1CN[C@@H]1C[C@@H]2C[C@H]([C@H]1C)C2(C)C [Compound 4] | > 66.7

Same assay, conditions: 6 h preincubation; read-out: Human TrxR1 IC50 (µM) or inhibition (%) at 66.7 µM: IC50

Structure (SMILES) | IC50 [µM]
Cc1oc(-c2ccccc2)nc1CN[C@@H]1C[C@@H]2C[C@H]([C@H]1C)C2(C)C [Compound 3] | 42.7 ± 3.95
Cc1oc(C2CCCCC2)nc1CN[C@@H]1C[C@@H]2C[C@H]([C@H]1C)C2(C)C [Compound 4] | 19 ± 5.72

Same assay, conditions: hsTrxR, 15 minutes pre-incubation, compound 15 µM

Structure (SMILES) | inhibition at 15 µM [%]
Cc1oc(C2CCCCC2)nc1CN[C@@H]1C[C@@H]2C[C@H]([C@H]1C)C2(C)C [Compound 4] | 14.3

Same assay, conditions: hsTrxR, 15 minutes pre-incubation, compound 30 µM

Structure (SMILES) | inhibition at 30 µM [%]
Cc1oc(C2CCCCC2)nc1CN[C@@H]1C[C@@H]2C[C@H]([C@H]1C)C2(C)C [Compound 4] | 26.9

Same assay, conditions: hsTrxR, 15 minutes pre-incubation, compound 66.7 µM; read-out: % inhibition

Structure (SMILES) | inhibition at 66.7 µM [%]
Cc1oc(C2CCCCC2)nc1CN[C@@H]1C[C@@H]2C[C@H]([C@H]1C)C2(C)C [Compound 4] | 40.2

Target: T2, Human GR (Homo sapiens, UniProt P00390)
T2 construct: made in house
T2 sequence (P00390 44-522): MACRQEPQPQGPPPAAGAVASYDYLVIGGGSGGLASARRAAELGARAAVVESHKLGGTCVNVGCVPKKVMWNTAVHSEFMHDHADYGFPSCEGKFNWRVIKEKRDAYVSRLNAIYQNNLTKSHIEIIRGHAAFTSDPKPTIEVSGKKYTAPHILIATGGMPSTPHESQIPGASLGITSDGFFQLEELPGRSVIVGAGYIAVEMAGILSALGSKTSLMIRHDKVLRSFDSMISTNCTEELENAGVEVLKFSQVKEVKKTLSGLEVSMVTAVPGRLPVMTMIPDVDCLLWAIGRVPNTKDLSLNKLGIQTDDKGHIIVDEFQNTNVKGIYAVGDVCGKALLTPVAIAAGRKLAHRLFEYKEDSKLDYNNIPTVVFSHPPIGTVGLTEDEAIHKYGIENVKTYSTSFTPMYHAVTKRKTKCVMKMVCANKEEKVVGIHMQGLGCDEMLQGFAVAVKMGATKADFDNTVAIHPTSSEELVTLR
Experiment: Human GR enzyme inhibition (GSSG reduction, NADPH oxidation)
Format: biochemical
Details: 66.7 µM

Structure (SMILES) | Human GR (inhibition at 66.7 µM)
Cc1oc(-c2ccccc2)nc1CN[C@@H]1C[C@@H]2C[C@H]([C@H]1C)C2(C)C [Compound 3] | n.i.
Cc1oc(C2CCCCC2)nc1CN[C@@H]1C[C@@H]2C[C@H]([C@H]1C)C2(C)C [Compound 4] | n.i.

Test system: S. mansoni adult worms
Experiment: GSH/GSSG ratio in ex vivo adult worms
Format: cell-based
Details: 1 hr; first data set (r117-133), baseline 55.82
Experimental: We assessed GSH/GSSG levels experimentally by treating S. mansoni adult worms with 50 µM of compounds, or respective controls 5 µM Auranofin, 50 µM PZQ or 50 µM MZM and 0.01% DMSO for 3 h. Worm homogenate was prepared by washing three times with PBS to remove residual compounds and ten volumes of ice cold 5% sulfosalicylic acid was added. Worms were manually homogenized on ice using VWR Pellet Mixer Adaptor. The worm suspension was centrifuged at 14000 × g, 4 °C for 10 min and the acid supernatants transferred. An equal volume of ice-cold neutralization buffer (500 mM HEPES, pH 8.0) was added to the acid supernatants.
GSH/GSSG assay was performed by diluting the acid supernatant (5-fold) with ice-cold dilution buffer (250 mM HEPES, pH 7.5). Using white opaque luminescence plate on ice, 25 µl of the diluted worm acid supernatant was added each well in triplicates. Total glutathione lysis reagent and GSSG lysis reagent, which contains alkylating agent N-ethylmaleimide (25 mM) were prepared following manufactures protocol and added to respective wells along with blank for background. Total glutathione lysis reagent or oxidized glutathione lysis reagent (25 µl) was added to respective wells containing worm acid supernatants and the plate was shaken for 5 min. Luciferin generation reagent (LGR) (50 µl) was added to all wells, briefly shaken and incubated at room temperature for 30 min. Luciferin detection reagent (LDR) (100 µl) was added to all wells, briefly shaken and incubated for 15 min at room temperature and the luminescence measured using microplate imager (BioTek Cytation3). GSH/GSSH ratio for DMSO control and compounds were calculated using (Net DMSO total glutathione RFU) – (Net DMSO GSSG RFU)/ (Net DMSO GSSG RFU)/2 and (Net inhibitor total glutathione RFU) – (Net inhibitor GSSG RFU)/ (Net inhibitor GSSG RFU)/2 respectively.

Structure (SMILES) | Ratio GSH/GSSG
Cc1oc(-c2ccccc2)nc1CN[C@@H]1C[C@@H]2C[C@H]([C@H]1C)C2(C)C [Compound 3] | 29.86
Cc1oc(C2CCCCC2)nc1CN[C@@H]1C[C@@H]2C[C@H]([C@H]1C)C2(C)C [Compound 4] | 28.16

Same assay, conditions: 1 hr; first data set (r117-133), baseline = 100

Structure (SMILES) | % Ratio GSH/GSSG [%]
Cc1oc(-c2ccccc2)nc1CN[C@@H]1C[C@@H]2C[C@H]([C@H]1C)C2(C)C [Compound 3] | 53.4928
Cc1oc(C2CCCCC2)nc1CN[C@@H]1C[C@@H]2C[C@H]([C@H]1C)C2(C)C [Compound 4] | 50.452

Same assay, conditions: 1 hr; third data set

Structure (SMILES) | Reduction (%) in GSH/GSSG ratio [%]
Cc1oc(-c2ccccc2)nc1CN[C@@H]1C[C@@H]2C[C@H]([C@H]1C)C2(C)C [Compound 3] | 60.3556

Same assay, conditions: 1 hr; third data set (r147-159), 0hr 72.45

Structure (SMILES) | Ratio GSH/GSSG
Cc1oc(-c2ccccc2)nc1CN[C@@H]1C[C@@H]2C[C@H]([C@H]1C)C2(C)C [Compound 3] | 28.72

Same assay, conditions: 1 hr; third data set (r147-159), 0hr = 100

Structure (SMILES) | % Ratio GSH/GSSG [%]
Cc1oc(-c2ccccc2)nc1CN[C@@H]1C[C@@H]2C[C@H]([C@H]1C)C2(C)C [Compound 3] | 39.6444

Same assay, conditions: 1 hr; third data set, (values given as fraction)

Structure (SMILES) | Reduction (%) in GSH/GSSG ratio [%]
Cc1oc(-c2ccccc2)nc1CN[C@@H]1C[C@@H]2C[C@H]([C@H]1C)C2(C)C [Compound 3] | 0.60

Same assay, conditions: 3 hr; first data set (r117-133), baseline 55.82

Structure (SMILES) | Ratio GSH/GSSG
Cc1oc(-c2ccccc2)nc1CN[C@@H]1C[C@@H]2C[C@H]([C@H]1C)C2(C)C [Compound 3] | 25.64
Cc1oc(C2CCCCC2)nc1CN[C@@H]1C[C@@H]2C[C@H]([C@H]1C)C2(C)C [Compound 4] | 18.95

Same assay, conditions: 3 hr; first data set (r117-133), baseline = 100

Structure (SMILES) | % Ratio GSH/GSSG [%]
Cc1oc(-c2ccccc2)nc1CN[C@@H]1C[C@@H]2C[C@H]([C@H]1C)C2(C)C [Compound 3] | 45.9343
Cc1oc(C2CCCCC2)nc1CN[C@@H]1C[C@@H]2C[C@H]([C@H]1C)C2(C)C [Compound 4] | 33.9548

Same assay, conditions: 3 hr; third data set

Structure (SMILES) | Reduction (%) in GSH/GSSG ratio [%]
Cc1oc(-c2ccccc2)nc1CN[C@@H]1C[C@@H]2C[C@H]([C@H]1C)C2(C)C [Compound 3] | 70.1019

Same assay, conditions: 3 hr; third data set (r147-159), 0hr 72.45

Structure (SMILES) | Ratio GSH/GSSG
Cc1oc(-c2ccccc2)nc1CN[C@@H]1C[C@@H]2C[C@H]([C@H]1C)C2(C)C [Compound 3] | 21.66

Same assay, conditions: 3 hr; third data set (r147-159), 0hr = 100

Structure (SMILES) | % Ratio GSH/GSSG [%]
Cc1oc(-c2ccccc2)nc1CN[C@@H]1C[C@@H]2C[C@H]([C@H]1C)C2(C)C [Compound 3] | 29.8981

Same assay, conditions: 3 hr; third data set, (values given as fraction)

Structure (SMILES) | Reduction (%) in GSH/GSSG ratio [%]
Cc1oc(-c2ccccc2)nc1CN[C@@H]1C[C@@H]2C[C@H]([C@H]1C)C2(C)C [Compound 3] | 0.70

Same assay, conditions: adult worms, 3 h exposure to compounds at 50 μM

Structure (SMILES) | Decrease (%) in GSH/GSSG ratio [%]
Cc1oc(-c2ccccc2)nc1CN[C@@H]1C[C@@H]2C[C@H]([C@H]1C)C2(C)C [Compound 3] | 62
Cc1oc(C2CCCCC2)nc1CN[C@@H]1C[C@@H]2C[C@H]([C@H]1C)C2(C)C [Compound 4] | 60

Source: publication PMC10287695, “Non-covalent inhibitors of thioredoxin glutathione reductase with schistosomicidal activity in vivo” (Nature Communications, 2023)
